Assay results taken from patent US20230002373A1, “COMPOUNDS AND COMPOSITIONS FOR TREATING CONDITIONS ASSOCIATED WITH STING ACTIVITY” (IFM Due, Inc., priority 2019, published 2023).

The compounds below were run against T1, hSTING (Homo sapiens, UniProt Q86WV6, G230A/H232R/R293Q/R71H) (assay: STING reporter assay (luciferase) in THP1-Dual KO-IFNAR2 cells stimulated with 2′3′cGAMP). Conditions: 15 μM 2′3′cGAMP, 24 h, class symbols.
T1 construct: host or cells: THP1-Dual KO-IFNAR2 cells
Type: cell-based
Procedure: STING pathway activation by the compounds described herein was measured using THP1-Dual™ cells (KO-IFNAR2).
THP1-Dual™ KO-IFNAR2 Cells (obtained from invivogen) were maintained in RPMI, 10% FCS, 5 ml P/S, 2 mM L-glut, 10 mM Hepes, and 1 mM sodium pyruvate. Compounds were spotted in empty 384 well tissue culture plates (Greiner 781182) by Echo for a final concentration of 0.0017-100 μM. Cells were plated into the TC plates […], 2×10E6 cells/mL. For activation with STING ligand, 2′3′cGAMP (MW 718.38, obtained from Invivogen), was prepared in Optimem media.
The following solutions were prepared for each 1×384 plate: • Solution A: 2 mL Optimem with one of the following stimuli: • 60 μL of 10 mM 2′3′cGAMP->150 μM stock • Solution B: 2 mL Optimem with 60 μL Lipofectamine 2000->Incubate 5 min at RT
2 mL of solution A and 2 ml Solution B was mixed and incubated for 20 min at room temperature (RT). 20 uL of transfection solution (A+B) was added on top of the plated cells, with a final 2′3′cGAMP concentration of 15 μM. The plates were then centrifuged immediately at 340 g for 1 minute, after which they were incubated at 37° C., 5% CO2, >98% humidity for 24 h. Luciferase reporter activity was then measured. EC50 values were calculated by using standard methods known in the art.
Luciferase reporter assay: 10 μL of supernatant from the assay was transferred to white 384-plate with flat bottom and squared wells. One pouch of QUANTI-Luc™ Plus was dissolved in 25 mL of water. 100 μL of QLC Stabilizer per 25 mL of QUANTI-Luc™ Plus solution was added. 50 μL of QUANTI-Luc™ Plus/QLC solution per well was then added. Luminescence was measured on a Platereader (e.g., Spectramax I3X (Molecular Devices GF3637001)).
Luciferase reporter activity was then measured. EC50 values were calculated by using standard methods known in the art.

T1 sequence (Q86WV6 whole entry R71H/G230A/H232R/R293Q): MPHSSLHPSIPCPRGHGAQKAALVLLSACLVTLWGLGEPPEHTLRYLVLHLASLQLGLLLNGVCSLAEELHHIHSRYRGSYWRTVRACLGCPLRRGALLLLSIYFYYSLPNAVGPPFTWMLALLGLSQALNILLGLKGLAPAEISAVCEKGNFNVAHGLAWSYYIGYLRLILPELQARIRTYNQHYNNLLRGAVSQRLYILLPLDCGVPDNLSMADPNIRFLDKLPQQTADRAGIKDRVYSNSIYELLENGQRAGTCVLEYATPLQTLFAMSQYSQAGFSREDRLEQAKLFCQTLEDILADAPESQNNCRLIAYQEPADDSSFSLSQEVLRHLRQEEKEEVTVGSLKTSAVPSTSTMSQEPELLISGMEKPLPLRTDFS

EC50 [nM] | Compound
200 to 1000 | Cc1ccc(CNC(=O)C(=O)Nc2c[nH]c3ccc(Br)nc23)cc1C(F)(F)F [Compound 128]
200 to 1000 | Cc1cc(NC(=O)C(=O)Nc2c[nH]c3ncc(F)cc23)cc(C(F)(F)F)c1 [Compound 101, N^1-(5-fluoro-1H-pyrrolo[2,3-b]pyridin-3-yl)-N^2-(3-methyl-5-(trifluoromethyl)phenyl)oxalamide]
200 to 1000 | O=C(NCc1ccc(F)c(OC(F)(F)F)c1)C(=O)Nc1c[nH]c2ccncc12 [Compound 148, N1-(4-fluoro-3-(trifluoromethoxy)-benzyl)-N2-(1H-pyrrolo[3,2-c]pyridin-3-yl)oxalamide]
200 to 1000 | Cc1ccc(CNC(=O)C(=O)Nc2c[nH]c3cccnc23)cc1C(F)(F)F [Compound 109, N^1-(4-methyl-3-(trifluoromethyl)benzyl)-N^2-(1H-pyrrolo[3,2-b]pyridin-3-yl)oxalamide]
200 to 1000 | Cc1ccc(CNC(=O)C(=O)Nc2c[nH]c3ccncc23)cc1C(F)(F)F [Compound 119, N^1-(4-methyl-3-(trifluoromethyl)benzyl)-N^2-(1H-pyrrolo[3,2-c]pyridin-3-yl)oxalamide]
5000 to 100000 | O=C(NCC12CC3CC(CC(C3)C1)C2)C(=O)Nc1c[nH]c2ncc(F)cc12 [Compound 105, N^1-(adamantan-1-ylmethyl)-N^2-(5-fluoro-1H-pyrrolo[2,3-b]pyridin-3-yl)oxalamide]
1000 to 5000 | O=C(Nc1cccc(C(F)(F)F)c1)C(=O)Nc1c[nH]c2ccncc12 [Compound 114, N^1-(1H-pyrrolo[3,2-c]pyridin-3-yl)-N^2-(3-(trifluoromethyl)phenyl)oxalamide]
1000 to 5000 | Cc1cc(CNC(=O)C(=O)Nc2c[nH]c3cnccc23)ccc1C(F)(F)F [Compound 213]
1000 to 5000 | CC(NC(=O)C(=O)Nc1c[nH]c2cccnc12)c1ccc(C(F)(F)F)cc1 (stereo not shown) [Compound 143, N1-(1H pyrrolo[3,2-b]pyridin-3-yl)-N2-(1-(4-(trifluoromethyl)phenyl)ethyl)oxalamide]
200 to 1000 | O=C(Nc1c[nH]c2ncc(F)cc12)C(=O)NC1CCC2(CCCC2)CC1 [Compound 198, N-(5-fluoro-1H-pyrrolo[2,3-b]pyridin-3-yl)-N′-(spiro[4.5]decan-8-yl)oxalamide]
1000 to 5000 | O=C(Nc1ccc(C(F)(F)F)cn1)C(=O)Nc1c[nH]c2ccncc12 [Compound 113, N^1-(1H-pyrrolo[3,2-c]pyridin-3-yl)-N^2-(5-(trifluoromethyl)pyridin-2-yl)oxalamide]
1000 to 5000 | O=C(NCc1ccc(Cl)c(C(F)(F)F)c1)C(=O)Nc1c[nH]c2cccnc12 [Compound 145, N1-(4-chloro-3-(trifluoromethyl)benzyl)-N2-(1H-pyrrolo[3,2-b]pyridin-3-yl)oxalamide]
200 to 1000 | O=C(NCc1ccc(Cl)cc1C(F)(F)F)C(=O)Nc1c[nH]c2ccncc12 [Compound 167, N1-(4-chloro-2-(trifluoromethyl)-benzyl)-N2-(1H-pyrrolo[3,2-c]pyridin-3-yl)oxalamide]
1000 to 5000 | Cc1cc(F)c(Cl)cc1NC(=O)C(=O)Nc1c[nH]c2ccncc12 [Compound 162, N1-(5-chloro-4-fluoro-2-methylphenyl)-N2-(1H-pyrrolo[3,2-c]pyridin-3-yl)oxalamide]
1000 to 5000 | O=C(NCc1cccc(C(F)(F)F)c1F)C(=O)Nc1c[nH]c2ccncc12 [Compound 170, N1-(2-fluoro-3-(trifluoromethyl)-benzyl)-N2-(1H-pyrrolo[3,2-c]pyridin-3-yl)oxalamide]
5000 to 100000 | O=C(Nc1c[nH]c2ncc(F)cc12)C(=O)N[C@@H]1CCC2(CCCCC2)C1 (single isomer, unassigned) [Compound 202]
1000 to 5000 | O=C(Nc1c[nH]c2ncc(F)cc12)C(=O)N[C@H]1CCC2(CCCCC2)C1 (single isomer, unassigned) [Compound 201]
1000 to 5000 | COc1ccc(CNC(=O)C(=O)Nc2c[nH]c3cccnc23)cc1C(F)(F)F [Compound 144, N1-(4-methoxy-3-(trifluoromethyl)benzyl)-N2-(1H-pyrrolo[3,2-b]pyridin-3-yl)oxalamide]

Same assay, conditions: 15 μM 2′3′cGAMP, 24 h, numeric bounds

EC50 [nM] | Compound
> 30000 | O=C(NCC1CCC(F)(F)CC1)C(=O)Nc1c[nH]c2ccncc12 [Compound 160, N1-((4,4-difluorocyclohexyl)-methyl)-N2-(1H-pyrrolo[3,2-c]pyridin-3-yl)oxalamide]
> 100000 | O=C(Nc1cnc2c(c1)CCCC2)C(=O)Nc1c[nH]c2cccnc12 [Compound 108, N^1-(1H-pyrrolo[3,2-b]pyridin-3-yl)-N^2-(5,6,7,8-tetrahydro-quinolin-3-yl)oxalamide]
> 30000 | O=C(NCC1CCc2ccccc2O1)C(=O)Nc1c[nH]c2ccncc12 (stereo not shown) [Compound 154, N1-(chroman-2-ylmethyl)-N2-(1H-pyrrolo[3,2-c]pyridin-3-yl)oxalamide]
> 30000 | O=C(NCCc1ncc(C(F)(F)F)cc1Cl)C(=O)Nc1c[nH]c2cccnc12 [Compound 139, N1-(2-(3-chloro-5-(trifluoromethyl)pyridin-2-yl)ethyl)-N2-(1H-pyrrolo[3,2-b]pyridin-3-yl)oxalamide]
> 30000 | O=C(NCC(F)(F)c1ccccc1)C(=O)Nc1c[nH]c2ccncc12 [Compound 163, N1-(2,2-difluoro-2-phenylethyl)-N2-(1H-pyrrolo[3,2-c]pyridin-3-yl)oxalamide]
> 30000 | O=C(NCCOc1ccc(C(F)(F)F)cc1)C(=O)Nc1c[nH]c2cccnc12 [Compound 133, N1-(1H-pyrrolo[3,2-b]pyridin-3-yl)-N2-(2-(4-(trifluoromethyl)phenoxy)ethyl)oxalamide]
> 30000 | O=C(NCc1cccc(N2CCCCC2)c1)C(=O)Nc1c[nH]c2cccnc12 [Compound 141, N1-(3-(piperidin-1-yl)benzyl)-N2-(1H-pyrrolo[3,2-b]pyridin-3-yl)oxalamide]
